Test results published in US11484032B2, “Compositions for inhibition of insect sensing” (Vanderbilt University, priority 2011, dated 2022).

Key:
Type in all cases: cell-based
AgORco+AgOR10 [1] = molecular target: T1, AgORco+AgOR10 (Anopheles gambiae, UniProt Q7QCC7); assay: Fluo-4 Ca2+ imaging, HEK293 cells expressing Orco+AgOR10; conditions: AgORco+AgOR10 cells; not seen in control cells
T1 construct: expressed in transfected cells
T1 sequence (Q7QCC7 1-478): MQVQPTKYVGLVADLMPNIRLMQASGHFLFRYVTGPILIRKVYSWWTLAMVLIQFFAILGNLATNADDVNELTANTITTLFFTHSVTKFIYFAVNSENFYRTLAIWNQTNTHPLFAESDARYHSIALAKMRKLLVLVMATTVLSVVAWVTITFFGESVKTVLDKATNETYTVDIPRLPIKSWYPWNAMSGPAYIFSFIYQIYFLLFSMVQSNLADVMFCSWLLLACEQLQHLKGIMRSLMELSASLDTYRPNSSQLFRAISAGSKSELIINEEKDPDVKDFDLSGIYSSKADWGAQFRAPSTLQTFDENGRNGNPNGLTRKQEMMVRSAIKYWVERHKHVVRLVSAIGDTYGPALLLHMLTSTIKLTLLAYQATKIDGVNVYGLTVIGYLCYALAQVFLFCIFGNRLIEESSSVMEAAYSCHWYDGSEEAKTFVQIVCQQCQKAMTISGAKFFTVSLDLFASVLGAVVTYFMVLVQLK
In short: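 Stable Flp-In T-REx 293 lines co-expressing Orco and OR, induced overnight with 0.3 u-g/ul tetracycline, loaded with 1.8 uM Fluo-4 AM plus 2.5 mM probenecid for 45 min at 37 °C. Ca2+ mobilization read after 20 s baseline and compound addition; Max/Min ratios normalized to the maximum responder.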

AgORco = molecular target: T2, AgORco (Anopheles gambiae, UniProt Q7QCC7); assay: Whole-cell patch clamp, HEK293 cells stably expressing AgORco alone
T2 construct: expressed in transfected cells
T2 sequence (Q7QCC7 1-478): T1 sequence (Q7QCC7 1-478)
Description: (§1) Currents from OR-expressing HEK293 cells were amplified with an Axopatch 200b Amplifier (Axon Instruments) and digitized through a Digidata 1322A (Axon Instruments). Electrophysiological data was recorded and analyzed using pCLAMP 10 (Axon Instruments). Electrodes were fabricated from quartz tubing (Sutter Instruments) and pulled to 4-6 MiΩ for whole cell recording. Electrodes were filled with internal solution (120 mM KCl, 30 mM D-glucose, 10 mM HEPES, 2 mM MgCl2, 1.1 mM EGTA, and 0.1 CaCl2) (pH 7.35, 280 mOsm). External (bath) solution contained 130 mM NaCl, 34 mM D-glucose, 10 mM HEPES, 1.5 mM CaCl2), 1.3 mM KH2PO4, and 0.5 MgSO4 (pH 7.35, 300 mOsm). Compounds were diluted in external solution and locally perfused to the recording cell using Perfusion Pencil (Automate Scientific) and controlled by a ValveLink 8.2 controller (Automate Scientific). Whole cell recordings were sampled at 10 kHz and filtered at 5 kHz. Outside-out patches were obtained using 10-15MΩ electrodes pulled from standard glass capillaries (World Precision Instruments) and fire-polished with an MF-830 micro forge (Narishige). Single channel recordings were sampled at 20 kHz. Recordings were reduced to 1 kHz and low-pass filtered at 500 Hz for display and analysis using QuB (SUNY at Buffalo).
(§2) To test the hypothesis that VUAA1 directly agonized AgORco, whole-cell patch clamp responses were examined in AgORco+AgOR10 expressing cells as well as HEK293 cells stably expressing AgORco alone. […] The VUAA1-dependent currents in AgORco+AgOR10 cells resembled those resulting from application of benzaldehyde, an orthosteric agonist of AgOR10 (FIG. 3C) (Wang, 2010; Carey, 2010). […] To investigate the specificity of VUAA1 agonism, the inventors transiently transfected HEK cells with the AgORco orthologs of Drosophila melanogaster and Heliothis virescens, DmORco and HvOR2 respectively.

AgORco+AgOR10 [2] = molecular target: T1, AgORco+AgOR10; assay: Whole-cell patch clamp, HEK293 cells expressing AgORco+AgOR10
Description: as §1, §2

CCc1ccc(NC(=O)CSc2nnc(-c3cccnc3)n2CC)cc1 [VUAA1, 2-((4-ethyl-5-(pyridin-3-yl)-4H-1,2,4-triazol-3-yl)thio)-N-(4-ethylphenyl)acetamide]
response in plate-based calcium imaging (AgORco+AgOR10 [1]): concentration-dependent responses
whole-cell current response (AgORco; AgORco alone cells, holding potential −60 mV): concentration-dependent inward currents
reversal potential of agonist-induced current (AgORco; AgORco alone, mean s.e.m.): +0.4±1.1 mV
whole-cell current response at −5.0 log M (AgORco; −5.0 log M): no response
whole-cell current response (AgORco+AgOR10 [2]; AgORco+AgOR10 cells, holding potential −60 mV): concentration-dependent inward currents
reversal potential of agonist-induced current (AgORco+AgOR10 [2]; AgORco+AgOR10 complexes, mean s.e.m.): −4.8±3.0 mV
whole-cell current response at −5.0 log M (AgORco+AgOR10 [2]; −5.0 log M): inward currents
